The text below walks through data of ChEMBL document CHEMBL1136677, “Dermorphin tetrapeptide analogues with 2',6'-dimethylphenylalanine (Dmp) substituted for aromatic amino acids have high mu opioid receptor binding and biological activities” (Bioorg Med Chem Lett, 2003).

Where only a bound is given, the exact number is not on record here.

The target of experiment [1] is Delta-type opioid receptor (Mus musculus) (UniProt P32300). The conditions noted are these: Vas deferens.
Description: Affinity towards delta opioid receptor using CTAP as antagonist in mouse vas deferens
The target is the same in experiment [2]. Briefly: Selectivity ratio of IC50(MVD) to IC50(GPI) was determined.
Experiment [3] deals with Mus musculus. Briefly: Antinociceptive activity in mice after subcutaneous injection in the second phase of formalin test. The following applies: sc. It is filed as functional.
Experiment [4] relates to Mus musculus. As to the kind of experiment: Antinociceptive activity in mice after subcutaneous injection in the first phase of formalin test. It is filed as functional. The following applies: sc.
Experiment [5] has as its target Delta-type opioid receptor (Rattus norvegicus) (UniProt P33533). As to the kind of experiment: (§1) Selectivity ratio of binding affinity of delta opioid receptor to mu opioid receptor.
For experiment [6], the target named is Delta-type opioid receptor (Mus musculus) (UniProt P32300). The following applies: Vas deferens. This is another data set of the same source.
Description: Affinity towards delta opioid receptor using N,N(Me)2Dmt-Tic-OH as antagonist in mouse vas deferens
Experiment [7] has as its target Mu-type opioid receptor (Cavia porcellus) (UniProt P97266). Briefly: Affinity towards mu opioid receptor using CTAP as antagonist in guinea pig ileum. It counts as functional, tissue-based.
For experiment [8], the target named is Mu-type opioid receptor (Cavia porcellus, UniProt P97266). As to the kind of experiment: Ability to inhibit electrically induced contractions of guinea pig ileum having mu opioid receptors tested in vitro. It counts as tissue-based.
The target in experiment [9] is Delta-type opioid receptor (Mus musculus, UniProt P32300). As to the kind of experiment: Ability to inhibit electrically induced contractions of mouse vas deferens having delta opioid receptors tested in vitro. It is filed as tissue-based.
Experiment [10] addresses Delta-type opioid receptor (Rattus norvegicus, UniProt P33533). As to the kind of experiment: Ability to displace [3H]-deltorphin II from delta opioid receptor.
In experiment [11] the target is Mu-type opioid receptor (Rattus norvegicus, UniProt P33535). As to the kind of experiment: Ability to displace [3H]DAMGO from mu opioid receptor.
For experiment [12], the target named is Prothrombin (Homo sapiens) (UniProt P00734). The experiment is described as §1.

Chain of Delta-type opioid receptor (Mus musculus, UniProt P32300) (P32300 whole entry): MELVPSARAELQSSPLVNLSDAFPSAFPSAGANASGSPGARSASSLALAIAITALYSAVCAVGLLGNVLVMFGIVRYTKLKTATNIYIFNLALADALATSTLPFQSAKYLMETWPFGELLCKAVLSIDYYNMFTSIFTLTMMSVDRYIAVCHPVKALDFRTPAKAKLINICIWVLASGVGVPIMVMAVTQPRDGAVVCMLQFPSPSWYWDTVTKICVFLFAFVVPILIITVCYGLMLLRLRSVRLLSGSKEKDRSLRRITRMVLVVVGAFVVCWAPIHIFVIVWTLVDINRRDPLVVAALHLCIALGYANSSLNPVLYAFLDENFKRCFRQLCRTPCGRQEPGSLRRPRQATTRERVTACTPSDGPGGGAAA
Chain of Delta-type opioid receptor (Mus musculus) (P32300 whole entry): as above
Chain of Mu-type opioid receptor (Rattus norvegicus, UniProt P33535) (P33535 whole entry): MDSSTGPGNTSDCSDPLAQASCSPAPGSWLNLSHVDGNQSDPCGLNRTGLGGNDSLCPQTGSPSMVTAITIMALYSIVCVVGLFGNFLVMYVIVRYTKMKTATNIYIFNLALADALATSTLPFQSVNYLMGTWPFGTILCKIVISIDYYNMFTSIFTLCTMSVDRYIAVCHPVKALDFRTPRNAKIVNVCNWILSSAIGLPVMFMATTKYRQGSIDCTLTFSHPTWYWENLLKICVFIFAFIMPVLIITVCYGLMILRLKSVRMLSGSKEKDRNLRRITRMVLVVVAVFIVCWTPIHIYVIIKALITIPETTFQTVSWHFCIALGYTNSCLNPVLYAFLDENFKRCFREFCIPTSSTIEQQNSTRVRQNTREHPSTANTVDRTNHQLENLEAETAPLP
Chain of Mu-type opioid receptor (Cavia porcellus, UniProt P97266) (P97266 whole entry): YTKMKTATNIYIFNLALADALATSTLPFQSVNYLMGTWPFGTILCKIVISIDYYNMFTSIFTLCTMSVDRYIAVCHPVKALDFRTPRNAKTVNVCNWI
Chain of Mu-type opioid receptor (Cavia porcellus) (P97266 whole entry): as above
Chain of Delta-type opioid receptor (Rattus norvegicus, UniProt P33533) (P33533 whole entry): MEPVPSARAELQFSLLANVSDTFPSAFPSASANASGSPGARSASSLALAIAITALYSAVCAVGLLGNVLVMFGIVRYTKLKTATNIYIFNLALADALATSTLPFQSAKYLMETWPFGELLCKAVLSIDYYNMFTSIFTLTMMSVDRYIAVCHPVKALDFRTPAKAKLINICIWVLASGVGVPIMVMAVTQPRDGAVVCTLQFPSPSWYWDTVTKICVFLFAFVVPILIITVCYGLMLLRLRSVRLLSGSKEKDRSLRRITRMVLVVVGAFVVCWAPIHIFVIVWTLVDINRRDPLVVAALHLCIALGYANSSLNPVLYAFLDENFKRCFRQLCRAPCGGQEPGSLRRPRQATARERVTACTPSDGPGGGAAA
Chain of Delta-type opioid receptor (Rattus norvegicus) (P33533 whole entry): as above

In the case of `NC(=O)CCNC(=O)[C@H](Cc1ccccc1)NC(=O)[C@@H](CCCN=C(N)N)NC(=O)[C@@H](N)Cc1ccc(O)cc1`, the Ke in [1] was 21.2 nM; in experiment [6], over 1000 nM; in [7] it was 26.8 nM. For the same compound, the Ratio is 21.8 in [2] and 2800 in experiment [5]. The ED50 (commonly the midpoint of the dose-response relation) in the experiment with Mus musculus [3] amounted to 0.514 µmol/kg; with Mus musculus [4], 0.628 µmol/kg.

With `Cc1cccc(C)c1C[C@H](NC(=O)[C@@H](CCCN=C(N)N)NC(=O)[C@@H](N)Cc1c(C)cccc1C)C(=O)NCCC(N)=O`, the Ke in [1] is 10.2 nM; in [6] it was over 1000 nM; in experiment [7], 21.3 nM. Moreover, the values for the IC50 (against Mu-type opioid receptor [8]; in [9]) were 2.76 nM and 50.1 nM, respectively. In addition, the Ratio in experiment [2] was 18.2; in experiment [5] it was 78100. The Ki (as a rule, a dissociation constant, usually derived from enzyme kinetics or from competition with a known ligand) was determined as 1690 nM in experiment [10] and 0.0216 nM on Mu-type opioid receptor [11].

As for `Cc1cccc(C)c1C[C@@H](N)C(=O)N[C@H](CCCNC(=N)N)C(=O)N[C@@H](Cc1ccccc1)C(=O)NCCC(N)=O`, the IC50 (commonly the concentration that gives 50% inhibition) at Mu-type opioid receptor [8] is 320 nM; in experiment [9] it was 1470 nM. For the same compound, the values for the Ki (in experiment [10]; at Mu-type opioid receptor [11]) were over 2820 nM and 7.62 nM, respectively.

Take `CN1CC[C@]23c4c5ccc(O)c4O[C@H]2[C@@H](O)C=C[C@H]3[C@H]1C5` [MORPHINE]: the results for the ED50 in the experiment with Mus musculus [3] and in the experiment with Mus musculus [4] were 7.32 µmol/kg and 3.81 µmol/kg, respectively.

With `N=C(N)NCCC[C@@H](NC(=O)[C@@H](N)Cc1ccc(O)cc1)C(=O)N[C@@H](Cc1ccccc1)C(=O)NCCC(N)=O`, the IC50 against Mu-type opioid receptor [8] was found to be 5.31 nM; in [9], 116 nM. For the same compound, the Ki in [10] came out at 482 nM; at Mu-type opioid receptor [11], 0.172 nM.

With `Cc1cccc(C)c1C[C@@H](NC(=O)[C@@H](CCCN=C(N)N)NC(=O)[C@@H](N)Cc1ccc(O)cc1)C(=O)NCCC(N)=O`, the IC50 against Mu-type opioid receptor [8] turned out to be 19.8 nM; in [9], 305 nM. The Ratio is 15.4 in [2] and over 45700 in [5]. Also, the Ki in experiment [10] was over 2820 nM; on Mu-type opioid receptor [11], 0.0618 nM.

Consider `NC(=O)CCNC(=O)[C@H](Cc1ccccc1)NC(=O)[C@@H](CCCN=C(N)N)NC(=O)[C@@H](N)Cc1ccccc1`, for which the IC50 was determined as 633 nM against Mu-type opioid receptor [8] and 7140 nM in experiment [9]. The Ratio was 11.2 in [2] and over 393 in experiment [5]. For the same compound, the Ki in [10] was over 2820 nM; at Mu-type opioid receptor [11], 7.17 nM.

Regarding `Cc1cccc(C)c1C[C@@H](N)C(=O)N[C@H](CCCN=C(N)N)C(=O)N[C@@H](Cc1ccccc1)C(=O)NCCC(N)=O`, the Ratio was 4.6 in [2] and over 370 in experiment [5].

As to `CC(C)[C@H](NC(=O)[C@H](CCC(=O)O)NC(=O)[C@H](Cc1ccccc1)NC(=O)[C@H](C)NC(=O)[C@@H](N)Cc1ccc(O)cc1)C(=O)N[C@H](C(=O)NCC(=O)O)C(C)C`, the Ke in experiment [1] was over 1000 nM; in experiment [6], 0.64 nM.

Turning to `Cc1cccc(C)c1C[C@H](N)C(=O)N[C@H](CCCN=C(N)N)C(=O)N[C@@H](Cc1ccccc1)C(=O)NCCC(N)=O`, the Ke is 13.4 nM in experiment [1], over 1000 nM in experiment [6] and 25.1 nM in [7]. The IC50 against Mu-type opioid receptor [8] is 9.88 nM; in [9], 188 nM. Besides, the Ratio in [2] is 19; in experiment [5], 41300. Also, the ED50 with Mus musculus [3] was determined as 1.53 µmol/kg; with Mus musculus [4], 1.95 µmol/kg. Moreover, the Ki in [10] is 2570 nM; at Mu-type opioid receptor [11], 0.0623 nM.

With `Cc1cccc(C)c1C[C@H](NC(=O)[C@@H](CCCN=C(N)N)NC(=O)[C@@H](N)Cc1ccc(O)cc1)C(=O)NCCC(N)=O`, the Ke in [1] was 11.4 nM; in experiment [6] it was over 1000 nM; in experiment [7] it was 22.7 nM. For the same compound, the IC50 at Mu-type opioid receptor [8] was 1.67 nM; in [9], 27.9 nM. The Ratio in [2] was 16.7; in experiment [12], 15500. The results for the ED50 in the experiment with Mus musculus [3] and with Mus musculus [4] were 0.113 µmol/kg and 0.0986 µmol/kg, respectively. The values for the Ki (in [10]; on Mu-type opioid receptor [11]) were 544 nM and 0.035 nM, respectively.

Regarding `Cc1cc(O)cc(C)c1C[C@H](N)C(=O)N[C@H](CCCN=C(N)N)C(=O)N[C@@H](Cc1ccccc1)C(=O)NCCC(N)=O`, the figures for the IC50 (against Mu-type opioid receptor [8]; in experiment [9]) were 0.034 nM and 0.398 nM, respectively. Besides, the Ratio in [2] was 11.7; in experiment [5], 551. For the same compound, the Ki in experiment [10] was 1.13 nM; at Mu-type opioid receptor [11], 0.00205 nM.
